≈ marks a conversion by molar mass, not a printed value.
What was measured:
Format in all cases: functional
Tetranychus urticae [1] = assay: Resistance ratio, ratio of LC50 for adult Tetranychus urticae (two-spotted spider mite) field population TU2 to LC50 for adult Tetranychus urticae laboratory strain SAMB measured after 48 hr
Tetranychus urticae [2] = assay: Acaricidal activity against adult Tetranychus urticae (two-spotted spider mite) greenhouse population TU1 in bean leaves assessed as mortality applied at 1 bar pressure measured after 48 hr; conditions: TU1, 48 h
Tetranychus urticae [3] = assay: Resistance ratio, ratio of LC50 for adult Tetranychus urticae (two-spotted spider mite) field population TU4 to LC50 for adult Tetranychus urticae laboratory strain SAMB measured after 48 hr
Tetranychus urticae [4] = assay: Resistance ratio, ratio of LC50 for adult Tetranychus urticae (two-spotted spider mite) field population TU6 to LC50 for adult Tetranychus urticae laboratory strain SAMB measured after 48 hr
Tetranychus urticae [5] = assay: Acaricidal activity against adult Tetranychus urticae (two-spotted spider mite) field population TU4 in bean leaves assessed as mortality applied at 1 bar pressure measured after 48 hr; conditions: TU4, 48 h
Tetranychus urticae [6] = assay: Acaricidal activity against adult Tetranychus urticae (two-spotted spider mite) greenhouse population TU3 in bean leaves assessed as mortality applied at 1 bar pressure measured after 48 hr; conditions: TU3, 48 h
Tetranychus urticae [7] = assay: Resistance ratio, ratio of LC50 for adult Tetranychus urticae (two-spotted spider mite) greenhouse population TU9 to LC50 for adult Tetranychus urticae laboratory strain SAMB measured after 48 hr
Tetranychus urticae [8] = assay: Resistance ratio, ratio of LC50 for adult Tetranychus urticae (two-spotted spider mite) field population TU12 to LC50 for adult Tetranychus urticae laboratory strain SAMB measured after 48 hr
Tetranychus urticae [9] = assay: Acaricidal activity against adult Tetranychus urticae (two-spotted spider mite) field population TU6 in bean leaves assessed as mortality applied at 1 bar pressure measured after 48 hr; conditions: TU6, 48 h
Tetranychus urticae [10] = assay: Resistance ratio, ratio of LC50 for adult Tetranychus urticae (two-spotted spider mite) greenhouse population TU5 to LC50 for adult Tetranychus urticae laboratory strain SAMB measured after 48 hr
Tetranychus urticae [11] = assay: Acaricidal activity against adult Tetranychus urticae (two-spotted spider mite) greenhouse population TU7 in bean leaves assessed as mortality applied at 1 bar pressure measured after 48 hr; conditions: TU7, 48 h
Tetranychus urticae [12] = assay: Resistance ratio, ratio of LC50 for adult Tetranychus urticae (two-spotted spider mite) laboratory strain GSS to LC50 for adult Tetranychus urticae laboratory strain SAMB measured after 48 hr
Tetranychus urticae [13] = assay: Acaricidal activity against adult Tetranychus urticae (two-spotted spider mite) greenhouse population TU11 in bean leaves assessed as mortality applied at 1 bar pressure measured after 48 hr; conditions: TU11, 48 h
Tetranychus urticae [14] = assay: Resistance ratio, ratio of LC50 for adult Tetranychus urticae (two-spotted spider mite) greenhouse population TU7 to LC50 for adult Tetranychus urticae laboratory strain SAMB measured after 48 hr
Tetranychus urticae [15] = assay: Resistance ratio, ratio of LC50 for adult Tetranychus urticae (two-spotted spider mite) greenhouse population TU1 to LC50 for adult Tetranychus urticae laboratory strain SAMB measured after 48 hr
Tetranychus urticae [16] = assay: Acaricidal activity against adult Tetranychus urticae (two-spotted spider mite) laboratory strain GSS in bean leaves assessed as mortality applied at 1 bar pressure measured after 48 hr
Tetranychus urticae [17] = assay: Acaricidal activity against adult Tetranychus urticae (two-spotted spider mite) field population TU12 in bean leaves assessed as mortality applied at 1 bar pressure measured after 48 hr; conditions: TU12, 48 h
Tetranychus urticae [18] = assay: Acaricidal activity against adult Tetranychus urticae (two-spotted spider mite) greenhouse population TU5 in bean leaves assessed as mortality applied at 1 bar pressure measured after 48 hr; conditions: TU5, 48 h
Tetranychus urticae [19] = assay: Acaricidal activity against adult Tetranychus urticae (two-spotted spider mite) laboratory strain SAMB in bean leaves assessed as mortality applied at 1 bar pressure measured after 48 hr
Tetranychus urticae [20] = assay: Acaricidal activity against adult Tetranychus urticae (two-spotted spider mite) greenhouse population TU9 in bean leaves assessed as mortality applied at 1 bar pressure measured after 48 hr; conditions: TU9, 48 h
Tetranychus urticae [21] = assay: Acaricidal activity against adult Tetranychus urticae (two-spotted spider mite) field population TU2 in bean leaves assessed as mortality applied at 1 bar pressure measured after 48 hr; conditions: TU2, 48 h
Tetranychus urticae [22] = assay: Resistance ratio, ratio of LC50 for adult Tetranychus urticae (two-spotted spider mite) greenhouse population TU3 to LC50 for adult Tetranychus urticae laboratory strain SAMB measured after 48 hr
Tetranychus urticae [23] = assay: Resistance ratio, ratio of LC50 for adult Tetranychus urticae (two-spotted spider mite) greenhouse population TU11 to LC50 for adult Tetranychus urticae laboratory strain SAMB measured after 48 hr
Tetranychus urticae [24] = assay: Acaricidal activity against adult Tetranychus urticae (two-spotted spider mite) greenhouse population TU5 in bean leaves assessed as mortality applied at 1 bar pressure measured after 24 hr; conditions: TU5, 24 h
Tetranychus urticae [25] = assay: Acaricidal activity against adult Tetranychus urticae (two-spotted spider mite) greenhouse population TU9 in bean leaves assessed as mortality applied at 1 bar pressure measured after 24 hr; conditions: TU9, 24 h
Tetranychus urticae [26] = assay: Acaricidal activity against adult Tetranychus urticae (two-spotted spider mite) laboratory strain SAMB in bean leaves assessed as mortality applied at 1 bar pressure measured after 24 hr
Tetranychus urticae [27] = assay: Resistance ratio, ratio of LC50 for adult Tetranychus urticae (two-spotted spider mite) field population TU2 to LC50 for adult Tetranychus urticae laboratory strain SAMB measured after 24 hr
Tetranychus urticae [28] = assay: Resistance ratio, ratio of LC50 for adult Tetranychus urticae (two-spotted spider mite) greenhouse population TU7 to LC50 for adult Tetranychus urticae laboratory strain SAMB measured after 24 hr
Tetranychus urticae [29] = assay: Resistance ratio, ratio of LC50 for adult Tetranychus urticae (two-spotted spider mite) field population TU6 to LC50 for adult Tetranychus urticae laboratory strain SAMB measured after 24 hr
Tetranychus urticae [30] = assay: Acaricidal activity against adult Tetranychus urticae (two-spotted spider mite) greenhouse population TU3 in bean leaves assessed as mortality applied at 1 bar pressure measured after 24 hr; conditions: TU3, 24 h
Tetranychus urticae [31] = assay: Resistance ratio, ratio of LC50 for adult Tetranychus urticae (two-spotted spider mite) greenhouse population TU3 to LC50 for adult Tetranychus urticae laboratory strain SAMB measured after 24 hr
Tetranychus urticae [32] = assay: Resistance ratio, ratio of LC50 for adult Tetranychus urticae (two-spotted spider mite) field population TU12 to LC50 for adult Tetranychus urticae laboratory strain SAMB measured after 24 hr
Tetranychus urticae [33] = assay: Resistance ratio, ratio of LC50 for adult Tetranychus urticae (two-spotted spider mite) greenhouse population TU5 to LC50 for adult Tetranychus urticae laboratory strain SAMB measured after 24 hr
Tetranychus urticae [34] = assay: Acaricidal activity against adult Tetranychus urticae (two-spotted spider mite) greenhouse population TU7 in bean leaves assessed as mortality applied at 1 bar pressure measured after 24 hr; conditions: TU7, 24 h
Tetranychus urticae [35] = assay: Acaricidal activity against adult Tetranychus urticae (two-spotted spider mite) laboratory strain GSS in bean leaves assessed as mortality applied at 1 bar pressure measured after 24 hr
Tetranychus urticae [36] = assay: Acaricidal activity against adult Tetranychus urticae (two-spotted spider mite) field population TU12 in bean leaves assessed as mortality applied at 1 bar pressure measured after 24 hr; conditions: TU12, 24 h
Tetranychus urticae [37] = assay: Acaricidal activity against adult Tetranychus urticae (two-spotted spider mite) field population TU4 in bean leaves assessed as mortality applied at 1 bar pressure measured after 24 hr; conditions: TU4, 24 h
Tetranychus urticae [38] = assay: Resistance ratio, ratio of LC50 for adult Tetranychus urticae (two-spotted spider mite) greenhouse population TU11 to LC50 for adult Tetranychus urticae laboratory strain SAMB measured after 24 hr
Tetranychus urticae [39] = assay: Resistance ratio, ratio of LC50 for adult Tetranychus urticae (two-spotted spider mite) greenhouse population TU1 to LC50 for adult Tetranychus urticae laboratory strain SAMB measured after 24 hr
Tetranychus urticae [40] = assay: Resistance ratio, ratio of LC50 for adult Tetranychus urticae (two-spotted spider mite) laboratory strain GSS to LC50 for adult Tetranychus urticae laboratory strain SAMB measured after 24 hr
Tetranychus urticae [41] = assay: Acaricidal activity against adult Tetranychus urticae (two-spotted spider mite) greenhouse population TU1 in bean leaves assessed as mortality applied at 1 bar pressure measured after 24 hr; conditions: TU1, 24 h
Tetranychus urticae [42] = assay: Acaricidal activity against adult Tetranychus urticae (two-spotted spider mite) field population TU2 in bean leaves assessed as mortality applied at 1 bar pressure measured after 24 hr; conditions: TU2, 24 h
Tetranychus urticae [43] = assay: Resistance ratio, ratio of LC50 for adult Tetranychus urticae (two-spotted spider mite) field population TU4 to LC50 for adult Tetranychus urticae laboratory strain SAMB measured after 24 hr
Tetranychus urticae [44] = assay: Acaricidal activity against adult Tetranychus urticae (two-spotted spider mite) field population TU6 in bean leaves assessed as mortality applied at 1 bar pressure measured after 24 hr; conditions: TU6, 24 h
Tetranychus urticae [45] = assay: Resistance ratio, ratio of LC50 for adult Tetranychus urticae (two-spotted spider mite) greenhouse population TU9 to LC50 for adult Tetranychus urticae laboratory strain SAMB measured after 24 hr
Tetranychus urticae [46] = assay: Acaricidal activity against adult Tetranychus urticae (two-spotted spider mite) greenhouse population TU11 in bean leaves assessed as mortality applied at 1 bar pressure measured after 24 hr; conditions: TU11, 24 h

In the case of CCN(CC)c1nc(C)cc(OP(=S)(OC)OC)n1 [PIRIMIPHOS METHYL], the RatioLC50 (Tetranychus urticae [1]) is reported as 12, the LC50 (Tetranychus urticae [2]) is reported as 248 µg/mL (≈ 812 µM) and the RatioLC50 (Tetranychus urticae [3]) is reported as 5.5. For the same compound, the RatioLC50 (Tetranychus urticae [4]) was 8.9, the LC50 (Tetranychus urticae [5]) was 98 µg/mL (≈ 321 µM) and the LC50 (Tetranychus urticae [6]) was 130 µg/mL (≈ 426 µM). For the same compound, the RatioLC50 (Tetranychus urticae [7]) was 14, the RatioLC50 (Tetranychus urticae [8]) was 4.3 and the LC50 (Tetranychus urticae [9]) was 158 µg/mL (≈ 517 µM). For the same compound, the RatioLC50 (Tetranychus urticae [10]) was 11, the LC50 (Tetranychus urticae [11]) was 1330 µg/mL (≈ 4360 µM) and the RatioLC50 (Tetranychus urticae [12]) was 19. The LC50 (Tetranychus urticae [13]) was 417 µg/mL (≈ 1370 µM), the RatioLC50 (Tetranychus urticae [14]) was 74 and the RatioLC50 (Tetranychus urticae [15]) was 14. It also gave an LC50 (Tetranychus urticae [16]) of 332 µg/mL (≈ 1090 µM), an LC50 (Tetranychus urticae [17]) of 77 µg/mL (≈ 252 µM) and an LC50 (Tetranychus urticae [18]) of 204 µg/mL (≈ 668 µM). The LC50 (Tetranychus urticae [19]) was 18 µg/mL (≈ 59 µM), the LC50 (Tetranychus urticae [20]) was 248 µg/mL (≈ 812 µM) and the LC50 (Tetranychus urticae [21]) was 225 µg/mL (≈ 737 µM). For the same compound, the RatioLC50 (Tetranychus urticae [22]) was 7.3 and the RatioLC50 (Tetranychus urticae [23]) was 23.

CC(C)(C)c1ccc(CSc2cnn(C(C)(C)C)c(=O)c2Cl)cc1 [PYRIDABEN] gave an LC50 (Tetranychus urticae [24]) of 38 µg/mL (≈ 104 µM), an LC50 (Tetranychus urticae [25]) of 166 µg/mL (≈ 455 µM) and an LC50 (Tetranychus urticae [26]) of 6.4 µg/mL (≈ 17.5 µM). For the same compound, the RatioLC50 (Tetranychus urticae [27]) was 11, the RatioLC50 (Tetranychus urticae [28]) was 34 and the RatioLC50 (Tetranychus urticae [29]) was 2.6. For the same compound, the LC50 (Tetranychus urticae [30]) was 117 µg/mL (≈ 321 µM), the RatioLC50 (Tetranychus urticae [31]) was 18 and the RatioLC50 (Tetranychus urticae [32]) was 9.8. For the same compound, the RatioLC50 (Tetranychus urticae [33]) was 5.9, the LC50 (Tetranychus urticae [34]) was 221 µg/mL (≈ 606 µM) and the LC50 (Tetranychus urticae [35]) was 4.4 µg/mL (≈ 12.1 µM). For the same compound, the LC50 (Tetranychus urticae [36]) was 62 µg/mL (≈ 170 µM), the LC50 (Tetranychus urticae [37]) was 26 µg/mL (≈ 71.2 µM) and the RatioLC50 (Tetranychus urticae [38]) was 39. It also gave a RatioLC50 (Tetranychus urticae [39]) of 4.5, a RatioLC50 (Tetranychus urticae [40]) of 0.7 and an LC50 (Tetranychus urticae [41]) of 29 µg/mL (≈ 79.5 µM). It also gave an LC50 (Tetranychus urticae [42]) of 71 µg/mL (≈ 195 µM), a RatioLC50 (Tetranychus urticae [43]) of 4 and an LC50 (Tetranychus urticae [44]) of 16 µg/mL (≈ 43.8 µM). The RatioLC50 (Tetranychus urticae [45]) was 26 and the LC50 (Tetranychus urticae [46]) was 248 µg/mL (≈ 680 µM).
